Experimental data taken from patent US8710099B2, “Treatment of cancer using the sodium salt of a benzoic acid derivative” (New York University, priority 2009, dated 2014).
One block for each compound: values may come before it.

What was measured:
[1] = tested on: tyrosinase (from mushrooms); assay: Purified tyrosinase activity, DOPAchrome formation; format: biochemical; conditions: 8.0 mM, up to 10 minutes; FIG. 2
Description: Activity of purified tyrosinase was measured by monitoring the formation of DOPAchrome. Briefly, a fixed concentration of L-DOPA (8.0 mM) was incubated with 800 U/ml tyrosinase (from mushrooms-Sigma, St. Louis, Mo.) in the absence or presence of increasing concentrations of PABA, compound 44 (C-44) and compound 45 (C-45) (see FIG. 1 for structures) for indicated time points (see FIG. 2 for concentrations and time points). At each time point, 100 μl of the reaction mixture was measured. Data points represent the mean optical density at 475 nm±SD from triplicate wells.

[2] = tested on: B16F10 melanoma cells; assay: Tumor cell proliferation, WST-1 tetrazolium salt cleavage; format: cell-based; conditions: 50 μg/ml test compound, 0.01 μM TAXOL®; vs untreated control; FIG. 3A
Description: (§1) Tumor cell proliferation was assessed by monitoring mitochondrial dehydrogenase activity as detected by tetrazolium salt cleavage using a commercially available kit (WST-1; Roche, Indianapolis, Ind.). Briefly, B16F10 melanoma cells, Lewis Lung carcinoma cells, and 4T1 breast carcinoma cells (1×10^6) were resuspended in PABA-free growth medium supplemented with 2.0% fetal bovine serum and 50 μg/ml of test compound (as shown in FIG. 1) Following incubation for 3 days, the cells were either treated or not treated with 0.01 μM TAXOL® and incubated for an additional 48 hours. Proliferation was measured; data points represent the mean optical density at 490 nm±SD from triplicate wells.

[3] = tested on: 4T1 breast carcinoma cells; assay: as above; format: cell-based; conditions: 50 μg/ml test compound, 0.01 μM TAXOL®; vs untreated control; FIG. 3C
Description: as §1

[4] = tested on: Lewis Lung carcinoma cells; assay: as above; format: cell-based; conditions: 50 μg/ml test compound, 0.01 μM TAXOL®; vs untreated control; FIG. 3B
Description: as §1

[5] = tested on: B16F10 melanoma cells; assay: Chick embryo tumor growth model; format: in vivo, chick embryos; conditions: for growth of the B16F10 tumors: 50 μg/ml C-45, TAXOL® 0.01 μM, FIG. 5B
Description: The chick embryo tumor growth model was used to determine whether C-45 enhances the ability of TAXOL® or ionizing radiation to inhibit tumor growth. Briefly, B16F10 melanoma cells were cultured in growth medium in the presence or absence of 50 μg/ml C-45 for at least 7 days. Following harvesting and washing, about 2×10^5 tumor cells were implanted onto the chorioallontoic membranes of 10 day-old chick embryos and incubated for at least 24 hours. Following incubation, the embryos were treated with either a single fractionated dose of radiation (5.0 Gy) or TAXOL® (paclitaxel) (0.01 μM) and incubated for an additional 7 days. The embryos were sacrificed and tumors were resected and weighed (5-10 embryos per condition).

[6] = tested on: B16F10 melanoma cells; assay: In vivo tumor growth of B16F10 xenografts in nude mice; conditions: daily i.p. for 15 days, TAXOL® 0.5 μM, C-45 100 μg; FIG. 4
Description: In addition, tumor growth in vivo of xenografts of B16F10 melanoma cells in nude mice was determined Briefly, subconfluent cultures of B16F10 cells were harvested, washed, and resuspended in sterile PBS. Female nude mice were injected subcutaneously with 1×10^6 cells per mouse and tumors were allowed to grow for 3 days. After 3 days, mice were either untreated or treated daily for 15 days by intraperitoneal injection of TAXOL® (0.5 μM), C-45 (100 μg), or a combination of TAXOL® and C-45. Tumor growth was determined weekly by caliper measurements. After 15 days, the mice were sacrificed and tumor volume was determined by standard methods using the formula […], where V=volume, L=length, and W=width.

[7] = tested on: G361 human melanoma cells; assay: Protein expression in PABA-treated G361 melanoma cells (data not shown); format: cell-based; conditions: G361 cells treated with PABA
[8] = target: T1, PXR/SXR receptor (Homo sapiens, UniProt O75469); conditions: Moore et al., Mol. Endocrinol. 2002; cited from earlier work
T1 sequence (O75469 1-434): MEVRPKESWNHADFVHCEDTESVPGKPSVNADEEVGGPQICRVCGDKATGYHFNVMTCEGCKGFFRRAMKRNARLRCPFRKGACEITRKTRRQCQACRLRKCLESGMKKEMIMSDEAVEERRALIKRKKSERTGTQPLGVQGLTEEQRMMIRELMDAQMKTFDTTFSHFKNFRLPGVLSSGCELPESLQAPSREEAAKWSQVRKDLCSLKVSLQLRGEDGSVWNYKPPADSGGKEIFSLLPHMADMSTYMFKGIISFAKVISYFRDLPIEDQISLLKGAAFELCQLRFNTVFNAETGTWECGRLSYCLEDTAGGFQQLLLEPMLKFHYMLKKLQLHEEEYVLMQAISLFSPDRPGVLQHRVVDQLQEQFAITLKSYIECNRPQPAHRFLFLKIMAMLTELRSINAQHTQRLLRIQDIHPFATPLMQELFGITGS

tyrosinase activity [1]: inhibited tyrosinase activity
SMILES: C=CCNc1ccc(C(=O)O)cc1 [C-45, 4-allylaminobenzoic acid]
in vitro proliferation of B16F10 cells [2]: inhibited in vitro proliferation
in vitro proliferation of 4T1 breast carcinoma cells [3]: inhibited in vitro proliferation
in vitro proliferation of Lewis Lung carcinoma cells [4]: inhibited in vitro proliferation
growth of the B16F10 tumors [5]: inhibited the growth of the B16F10 tumors significantly
tumor growth in vivo, combination with radiation ([5]; 50 μg/ml C-45 plus single dose of radiation 5.0 Gy, FIG. 5A): even more effective at inhibiting tumor growth
tumor weight ([5]; cells cultured with 50 μg/ml C-45, C-45 alone, FIG. 5A): reduced tumor weight significantly
in vivo tumor growth compared to untreated controls [6]: neither TAXOL® nor C-45 inhibited in vivo tumor growth

SMILES: CC(=O)O[C@H]1C(=O)[C@@]2(C)[C@H]([C@H](OC(=O)c3ccccc3)[C@]3(O)C[C@H](OC(=O)[C@H](O)[C@@H](NC(=O)c4ccccc4)c4ccccc4)C(C)=C1C3(C)C)[C@]1(OC(C)=O)CO[C@@H]1C[C@@H]2O [TAXOL®, paclitaxel, reference compound]
in vitro proliferation of B16F10 cells [2]: inhibited in vitro proliferation
in vitro proliferation of 4T1 breast carcinoma cells [3]: inhibited in vitro proliferation
in vitro proliferation of Lewis Lung carcinoma cells [4]: inhibited in vitro proliferation
growth of the B16F10 tumors [5]: inhibited the growth of the B16F10 tumors significantly
in vivo tumor growth compared to untreated controls [6]: neither TAXOL® nor C-45 inhibited in vivo tumor growth

tyrosinase activity [1]: inhibited tyrosinase activity
SMILES: Nc1ccc(C(=O)O)cc1 [PABA, para-amino-benzoic-acid]
expression of cell-cycle progression checkpoint protein CDC25A [7]: increase expression
protein expression of DNA repair protein BRCA-2 [7]: decreased protein expression
binding to the PXR/SXR receptor [8]: bind to the PXR/SXR receptor
